Assay results from publication PMC9865853, “Structural Insights Uncover the Specific Phosphoinositide Recognition by the PH1 Domain of Arap3” (International Journal of Molecular Sciences, 2023).
pKd: −log10 of the molar value.

Target: T1, Arap3-PH1 (Homo sapiens, UniProt Q8WWN8)
T1 construct: first PH domain, residues 284-385, C-terminal 6xHis tag (pET22b), expressed in E. coli BL21(DE3)
T1 sequence (Q8WWN8 284-385): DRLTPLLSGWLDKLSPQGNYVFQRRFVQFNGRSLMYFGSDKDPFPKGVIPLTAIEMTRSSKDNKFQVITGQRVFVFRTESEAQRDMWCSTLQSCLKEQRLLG
Assay: SPR (Biacore T200, CM5, protein immobilised), one-site fit
Assay type: binding

pKd | SMILES
~4.21 | CCCC(=O)OC[C@H](COP(=O)(O)O[C@@H]1[C@H](O)[C@H](O)[C@@H](OP(=O)(O)O)[C@H](OP(=O)(O)O)[C@H]1O)OC(=O)CCC [diC4-PI(4,5)P2]
~4.94 | CCCC(=O)OC[C@H](COP(=O)(O)O[C@H]1[C@H](O)[C@@H](OP(=O)(O)O)[C@H](OP(=O)(O)O)[C@@H](OP(=O)(O)O)[C@H]1O)OC(=O)CCC [diC4-PI(3,4,5)P3]
